These results are taken from ChEMBL document CHEMBL3826931, “Salinomycin Hydroxamic Acids: Synthesis, Structure, and Biological Activity of Polyether Ionophore Hybrids” (ACS Med Chem Lett, 2016).

One series has as its system MCF7. The experiment in a line: Cytotoxicity against human MCF7 cells after 72 hrs by MTT assay. The following applies: MCF7, 72 h. The class given is functional, cell-based.
A short description of series [1]: Cytotoxicity against human JIMT1 cells after 72 hrs by MTT assay. The conditions noted are these: JIMT-1, 72 h. The class given is functional, cell-based. A general note: Tetrazolium assays rely on reduction of a dye to a coloured formazan, in cell work by metabolically active cells.
Series [2] in a line: Ionophoric activity in large unilamellar POPC/POPG (3:1) vesicles assessed as relaxation of potassium coupled-proton gradient by measuring decrease in internal pH at 100 pM after 300 secs by ratiometric pH reporter pyranin based spectroscopic analysis. The class given is ADME. The conditions noted are these: 5 min, 0.0001 µM.
For series [3], the system named is JIMT-1. The experiment in a line: Reduction in aldehyde dehydrogenase levels in human JIMT1 cells at 5 to 10 uM by ALDEFLUOR assay. It counts as functional, cell-based.
The test system of series [4] is JIMT-1. Put plainly: Reduction in aldehyde dehydrogenase levels in human JIMT1 cells at 0.52 uM by ALDEFLUOR assay (reference value: 30 to 60%). The class given is functional. The arrangement: scale not given: the % may be the effect or the level left.
A short description of series [5]: Ionophoric activity in large unilamellar POPC/POPG (3:1) vesicles assessed as relaxation of potassium coupled-proton gradient by measuring decrease in internal pH at 1 pM after 300 secs by ratiometric pH reporter pyranin based spectroscopic analysis. It counts as ADME. The following applies: 5 min.

The structures appear in SMILES notation. Active and inactive are the calls of the source. No cut-off for these calls is given here.

Usually IC50 stands for the concentration needed to halve the response being measured.

Take `CC[C@@H](C(=O)[C@@H](C)[C@@H](O)[C@H](C)[C@@H]1O[C@@H]([C@@H](CC)C(=O)NO)CC[C@@H]1C)[C@H]1O[C@]2(C=C[C@@H](O)[C@]3(CC[C@@](C)([C@H]4CC[C@](O)(CC)[C@H](C)O4)O3)O2)[C@H](C)C[C@@H]1C`: the IC50 turned out to be 10 µM in the series with MCF7 and 6.7 µM in series [1]. Further, the result in series [2] was Active. The outcome in the series on JIMT-1 [3] was inactive.
`CC[C@@H](C(=O)[C@@H](C)[C@@H](O)[C@H](C)[C@@H]1O[C@@H]([C@@H](CC)C(=O)NOC)CC[C@@H]1C)[C@H]1O[C@]2(C=C[C@@H](O)[C@]3(CC[C@@](C)([C@H]4CC[C@](O)(CC)[C@H](C)O4)O3)O2)[C@H](C)C[C@@H]1C`: the IC50 in the series with MCF7 came to 16.3 µM; in series [1], 17.3 µM. The result with JIMT-1 [3] was inactive.
For `CC[C@@H](C(=O)[C@@H](C)[C@@H](O)[C@H](C)[C@@H]1O[C@@H]([C@@H](CC)C(=O)O)CC[C@@H]1C)[C@H]1O[C@]2(C=C[C@@H](O)[C@]3(CC[C@@](C)([C@H]4CC[C@](O)(CC)[C@H](C)O4)O3)O2)[C@H](C)C[C@@H]1C` [SALINOMYCIN], the Activity is 60% with JIMT-1 [4] and “Active” in series [5]. The IC50 in the series with MCF7 is 0.59 µM; in series [1] it was 0.52 µM.
On to `CC[C@@H](C(=O)[C@@H](C)[C@@H](O)[C@H](C)[C@@H]1O[C@@H]([C@@H](CC)C(=O)N(C)OC)CC[C@@H]1C)[C@H]1O[C@]2(C=C[C@@H](O)[C@]3(CC[C@@](C)([C@H]4CC[C@](O)(CC)[C@H](C)O4)O3)O2)[C@H](C)C[C@@H]1C`, for which the IC50 with MCF7 worked out at 9.3 µM; in series [1], 10.1 µM. In the series with JIMT-1 [3], the outcome was inactive.
On the same counts, the results for `CC[C@@H](C(=O)[C@@H](C)[C@@H](O)[C@H](C)[C@@H]1O[C@@H]([C@@H](CC)C(=O)N(C)O)CC[C@@H]1C)[C@H]1O[C@]2(C=C[C@@H](O)[C@]3(CC[C@@](C)([C@H]4CC[C@](O)(CC)[C@H](C)O4)O3)O2)[C@H](C)C[C@@H]1C` are over 20 µM, over 20 µM and “inactive”.
